Reference: patent US6495563B1, “Method and composition for prevention of scar formation in glaucoma filtration bleb and drainage fistula” (Synphora AB, priority 1999, dated 2002)
Marks after values point to notes of the source that are not given here.

Legend:
[1] = tested on: Human fibroblasts; test: Antiproliferative effect on cultured human fibroblasts (crystal violet absorbance as measure of cell number); type: cell-based; conditions: for Effect on cell number of the cultures (decrease in crystal violet absorbance): 10^−6 to 10^−3 Moles/l, 5-7 days; for EC50 value for reducing cell number / EC50: 5-7 days of culture, crystal violet absorbance at 595 nm; for EC50: read-out: EC50 value for reducing cell number
Description: The following prostaglandins, purchased from Cayman Chemicals, Ann Arbor, Mich., USA, and Biomol Feinchemikalien GmbH, Hamburg, Germany were used in the experiments: prostaglandin A1 (PGA1), prostaglandin A2 (PGA2), prostaglandin J2 (PGJ2) and 15-deoxy-Δ^12,14-prostaglandin J2 (15-Δ^12,14-PGJ2). The chemical structures of the test compounds are depicted in FIG. 1. All test compounds were stored at −20° C., and fresh solutions containing the appropriate concentrations of the test compounds were made every second day. The test compounds were initially dissolved in ethanol and then diluted in the culture medium.
Human fibroblasts were used at passage 22-24. The culture medium consisted of DMEM with 10% fetal calf serum and 50 μg/ml gentamycin. Around 10,000 cells were seeded into each well of 48 well microtiter plates. The total volume of culture medium was about 250 μl/well. The cells were incubated at 37° C. with 5% CO2 humidified air. The culture medium was changed every second day, and at the same time new, freshly prepared prostaglandin was added to the medium. The test compounds were investigated at several concentrations in the range of 10^−6 to 10^−3 Moles/l. […] The concentrations in the figures depicting the results are expressed as the negative logarithm The culture medium alone served as control. After 5-7 days of culture the experiment was terminated by fixation of the cells in 1% glutaraldehyde. The cells were then stained with 0.1% crystal violet, and the stain was eluted with 2.5% sodium lauryl sulphate. The absorbance of the colored solutions was determined spectrophotometrically. Each experiment was performed at least in duplicate.

[2] = tested on: New Zealand White adult rabbits; test: Intraocular pressure after modified trabeculectomy surgery in rabbits with topical eye drops; type: in vivo, rabbit
Description: Ten New Zealand White adult rabbits underwent modified unilateral trabeculectomy surgery and were treated with corticosteroids and mydriatics postoperatively for about one month according to a clinical protocol. Starting the same day as the surgery was performed, the operated eye in five animals was in addition treated twice daily with PGA2-IE eye drops (10 μg/dose) for 4 months, while in the other five animals the operated eye was treated with vehicle only for the same period of time. The intraocular pressure was measured throughout the treatment period at least every second week. […] From FIG. 4 it is apparent that the difference in intraocular pressure between the vehicle-treated operated and control eyes steadily diminished with time which was quite opposite to the difference in traocular pressure between the PGA2-IE-treated operated and control eyes in FIG. 5. Thus it appears that even during this short treatment period (4 months) a difference in the level of intraocular pressure reduction between the PGA2-IE treated and vehicle-treated operated eyes is manifested, and at the end of the treatment period the difference in intraocular pressure reduction was statistically significant (p<0.05) (Table 1).

[3] = tested on: New Zealand White adult rabbits; test: Postsurgical intraocular inflammation after extracapsular lens extraction in rabbits; type: in vivo, rabbit; conditions: 10 μg/dose twice daily; for Number of animals, operated eye Normal / Number of animals, operated eye Inflamed: 5 animals
Source text: Ten New Zealand White adult rabbits underwent extracapsular lens extraction in one eye to investigate the effect of PGA2-E on postsurgical inflammation. Lens extraction was used as a model since this procedure is always followed by some inflammatory changes. The contralateral eye was used as an untreated control eye in each animal. The operated eyes were given routine postsurgical treatment with corticosteroids and mydriatics for about one month. From the day after the surgery and for a total of 4 months 5 of the animals were treated with PGA2-IE eye drops twice daily (10 μg/dose) in the operated eye while the contralateral control (non-operated) eye received no treatment. The other 5 animals were treated with the vehicle only twice daily for the same period of time. […] The signs of inflammation comprised miosis, iridial hyperemia, flare and fibrin accumulation in the anterior chamber, and additional anti-inflammatory medication had to be given to these animals.

CCCCC/C=C/C=C1/C(=O)C=C[C@@H]1C/C=C\CCCC(=O)O [15-deoxy-Δ^12,14-PGJ2, 15-deoxy-Δ^12,14-prostaglandin J2]
Effect on cell number of the cultures (decrease in crystal violet absorbance) [1]: effectively reduced the cell number

CCCCC[C@H](O)/C=C/[C@H]1C=CC(=O)[C@@H]1CCCCCCC(=O)O [PGA1, prostaglandin A1]
Effect on cell number of the cultures (decrease in crystal violet absorbance) [1]: effectively reduced the cell number

CCCCC[C@H](O)/C=C/[C@H]1C=CC(=O)[C@@H]1C/C=C\CCCC(=O)O [PGA2, prostaglandin A2]
EC50 value for reducing cell number [1]: around −5.5 log units
EC50 [1]: ~3 µM
Effect on cell number of the cultures (decrease in crystal violet absorbance) [1]: effectively reduced the cell number

CCCCC[C@H](O)/C=C/[C@H]1C=CC(=O)[C@@H]1C/C=C\CCCC(=O)OC(C)C [PGA2-IE, PGA2-isopropyl ester]
Maintenance of the intraocular pressure at a reduced level after surgery compared with vehicle ([2]; 4 months, 10 μg/dose twice daily): clear tendency towards better maintenance of the intraocular pressure at a reduced level
Adverse effects in the eye (local inflammation or increased intraocular pressure) ([2]; 4 months, 10 μg/dose twice daily topical): no adversarial effects in the eye
Intraocular pressure, operated eye ([2]; end of 4 month treatment, 10 μg/dose twice daily eye drops, n=5): 17.2 ± 2.9 mmHg
Intraocular pressure, difference between control eye and operated eye ([2]; end of 4 month treatment, 10 μg/dose twice daily eye drops, n=5, p<0.05 vs vehicle group): 3.8 ± 1.0 mmHg
Number of animals, operated eye Normal ([3]; 2 months after surgery): 3
Number of animals, operated eye Inflamed ([3]; 2 months after surgery, one only slightly inflamed): 2*
Anti-inflammatory effect in the eye ([3]; 4 month treatment): remarkable anti-inflammatory effect
Number of animals, operated eye Inflamed ([3]; 4 months after surgery): 1
Number of animals, operated eye Normal ([3]; 4 months after surgery): 4

CCCCC[C@H](O)/C=C/[C@H]1C(=O)C=C[C@@H]1C/C=C\CCCC(=O)O [PGJ2, prostaglandin J2]
EC50 value for reducing cell number [1]: about −4.75 log units
EC50 [1]: ~20 µM
Effect on cell number of the cultures (decrease in crystal violet absorbance) [1]: effectively reduced the cell number
